# Entries after “also recorded” stand apart in the source; their conditions may differ.
# Legend:
# ABCB3 = target: T1, ABCB3 (Homo sapiens, UniProt Q03519); experiment: Correlation of ABCB3 expression with drug sensitivity across the NCI-60; format: cell-based; settings: Pearson correlation of ABCB3 expression with sensitivity of the 60 cell lines; 1429 compounds; inverse, p < 0.0001
# T1 construct: profiled in 60 diverse cancer cell lines (the NCI-60) using real-time RT-PCR; endogenous in cells; host or cells: NCI-60 human cancer cell lines
# Description: (§2) Expression levels are measured by real-time quantitative RT-PCR using the LightCycler RNA Amplification SYBR Green kit and a LightCycler machine (Roche Biochemicals, Indianapolis, Ind.). […] When possible, the amplicons are designed to encompass exon-intron boundaries to avoid amplification of genomic DNA. Since the Syber Green assay detects accumulation of double stranded DNA, primers are selected (from a battery consisting of about 200 primers) that amplified a single product of the correct size.
# (§3) RT-PCR is carried out on 150 ng total RNA, in the presence of 250 nM specific primers. […]
# During PCR amplification, fluorescence emission is measured and recorded in real time by the LightCycler. Crossing point values are calculated, using the LightCycler software package, by the Fit Points analysis method, with baseline fluorescence set at 1. The SyberGreen assay measures accumulation of double-stranded products, and the appearance of primer dimers limits quantitation at high cycle numbers. […] The raw results are expressed as number of cycles to reach the crossing point. If the desired product is not detected, the corresponding value is adjusted to crossing points indicating no expression. To assess the contribution of experimental artifacts, selected cell lines are assessed in replicate.
# ABCC8 = target: T2, ABCC8 (Homo sapiens, UniProt Q09428); experiment: Correlation of ABCC8 expression with drug sensitivity across the NCI-60; format: cell-based; settings: Pearson correlation of ABCC8 expression with sensitivity of the 60 cell lines; 1429 compounds; inverse, p < 0.0001
# T2 construct: profiled in 60 diverse cancer cell lines (the NCI-60) using real-time RT-PCR; endogenous in cells; host or cells: NCI-60 human cancer cell lines
# Description: as §2, §3
# (§4) During PCR amplification, fluorescence emission is measured and recorded in real time by the LightCycler. Crossing point values are calculated, using the LightCycler software package, by the Fit Points analysis method, with baseline fluorescence set at 1. The SyberGreen assay measures accumulation of double-stranded products, and the appearance of primer dimers limits quantitation at high cycle numbers. […] The raw results are expressed as number of cycles to reach the crossing point. If the desired product is not detected, the corresponding value is adjusted to crossing points indicating no expression. To assess the contribution of experimental artifacts, selected cell lines are assessed in replicate. […]
# ABCC11 = target: T3, ABCC11 (Homo sapiens, UniProt Q96J66); experiment: Correlation of ABCC11 expression with drug sensitivity across the NCI-60; format: cell-based; settings: after removal of the single, high-expressing cell line (T47D)
# T3 construct: profiled in 60 diverse cancer cell lines (the NCI-60) using real-time RT-PCR; endogenous in cells; host or cells: NCI-60 human cancer cell lines
# Description: as §2, §3, §4
# [1] = tested on: ABCC11-transfected LLC-PK1 cells; experiment: MTT assay, ABCC11-transfected vs sham-transfected LLC-PK1 cells; format: cell-based
# Description: Panel A is a scatter plot showing the correlation (r) of ABCC11 expression with sensitivity of the 60 cells to NSC 671136 (r=−0.4; 99.99% two-tailed bootstrap confidence interval −0.6726 to −0.0141). […] Values are means ±S.E. of triplicate MTT assays.
# (§1) Cell survival is measured by the MTT (3-(4,5-Dimethylthiazol-2-yl)-2,5-diphenyltetrazolium) Assay. Cells are seeded in 100 μl medium at a density of 5000 cells/well in 96 well plates, and serially diluted drug (with or without 2 μM PSC 833) is added the following day in 100 μl medium to give the indicated final concentration. Cells are then incubated for 72 hrs at 37° C. in 5% CO2, and the MTT assay is performed according to the manufacturer's instructions (Molecular Probes, Eugene, Oreg.).
# One compound, NSC 671136 (shown in FIG. 5, Panel C), met the stringent bootstrap criterion for significant inverse correlation with the expression of ABCC11 in the 60 cell lines (FIG. 5, Panel A). An MTT assay was used to assess whether over-expression of ABCC11 can confer resistance to the NSC 671136 compound.
# ABCD3 = target: T4, ABCD3 (Homo sapiens, UniProt P28288); experiment: Correlation of ABCD3 expression with drug sensitivity across the NCI-60; format: cell-based; settings: Pearson correlation of ABCD3 expression with sensitivity of the 60 cell lines; 1429 compounds; inverse, p < 0.0001
# T4 construct: profiled in 60 diverse cancer cell lines (the NCI-60) using real-time RT-PCR; endogenous in cells; host or cells: NCI-60 human cancer cell lines
# T4 sequence (P28288 whole entry): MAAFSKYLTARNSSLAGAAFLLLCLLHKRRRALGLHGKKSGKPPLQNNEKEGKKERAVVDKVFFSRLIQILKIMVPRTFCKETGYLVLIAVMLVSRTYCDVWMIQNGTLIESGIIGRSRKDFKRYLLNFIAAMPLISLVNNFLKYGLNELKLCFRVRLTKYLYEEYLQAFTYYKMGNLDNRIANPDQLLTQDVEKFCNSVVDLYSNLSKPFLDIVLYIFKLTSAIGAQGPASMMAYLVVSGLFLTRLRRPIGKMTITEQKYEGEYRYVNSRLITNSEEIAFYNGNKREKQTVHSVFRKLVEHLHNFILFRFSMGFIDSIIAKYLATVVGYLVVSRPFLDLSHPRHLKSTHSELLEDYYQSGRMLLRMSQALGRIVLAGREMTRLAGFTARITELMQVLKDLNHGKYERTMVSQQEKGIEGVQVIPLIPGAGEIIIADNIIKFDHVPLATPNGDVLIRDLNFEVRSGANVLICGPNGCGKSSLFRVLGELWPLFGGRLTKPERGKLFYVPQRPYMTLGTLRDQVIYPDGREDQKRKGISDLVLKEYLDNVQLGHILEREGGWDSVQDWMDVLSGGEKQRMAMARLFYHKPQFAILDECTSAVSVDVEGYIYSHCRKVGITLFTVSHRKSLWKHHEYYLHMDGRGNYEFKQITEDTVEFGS
# Description: (§5) Expression levels are measured by real-time quantitative RT-PCR using the LightCycler RNA Amplification SYBR Green kit and a LightCycler machine (Roche Biochemicals, Indianapolis, Ind.). Specific oligonucleotide probes are designed for each of the ABC transporters using DNAStar Primer Select (DNASTAR Inc.), and they may be synthesized at Lofstrand Laboratories (Gaithersburg, Md.). When possible, the amplicons are designed to encompass exon-intron boundaries to avoid amplification of genomic DNA. Since the Syber Green assay detects accumulation of double stranded DNA, primers are selected (from a battery consisting of about 200 primers) that amplified a single product of the correct size. […]
# as §4
# ABCG8 = target: T5, ABCG8 (Homo sapiens, UniProt Q9H221); experiment: Correlation of ABCG8 expression with drug sensitivity across the NCI-60; format: cell-based; settings: Pearson correlation of ABCG8 expression with sensitivity of the 60 cell lines; 1429 compounds; inverse, p < 0.0001
# T5 construct: endogenous in cells; host or cells: NCI-60 human cancer cell lines
# Description: as §5, §4
# ABCA2 = target: T6, ABCA2 (Homo sapiens, UniProt Q9BZC7); experiment: Correlation of ABCA2 expression with drug sensitivity across the NCI-60; format: cell-based; settings: Pearson correlation of ABCA2 expression with sensitivity of the 60 cell lines; 1429 compounds; inverse, p < 0.0001
# T6 construct: profiled in 60 diverse cancer cell lines (the NCI-60) using real-time RT-PCR; endogenous in cells; host or cells: NCI-60 human cancer cell lines
# Description: as §2, §3, §4
# ABCC9 = target: T7, ABCC9 (Homo sapiens, UniProt O60706); experiment: Correlation of ABCC9 expression with drug sensitivity across the NCI-60; format: cell-based; settings: Pearson correlation of ABCC9 expression with sensitivity of the 60 cell lines; 1429 compounds; inverse, p < 0.0001
# T7 construct: profiled in 60 diverse cancer cell lines (the NCI-60) using real-time RT-PCR; endogenous in cells; host or cells: NCI-60 human cancer cell lines
# Description: as §2, §3, §4
# ABCB1 = ABCB1 (Homo sapiens, UniProt P08183); experiment: Correlation of ABCB1 expression with drug sensitivity across the NCI-60
# Sequence of ABCB1 (P08183 whole entry): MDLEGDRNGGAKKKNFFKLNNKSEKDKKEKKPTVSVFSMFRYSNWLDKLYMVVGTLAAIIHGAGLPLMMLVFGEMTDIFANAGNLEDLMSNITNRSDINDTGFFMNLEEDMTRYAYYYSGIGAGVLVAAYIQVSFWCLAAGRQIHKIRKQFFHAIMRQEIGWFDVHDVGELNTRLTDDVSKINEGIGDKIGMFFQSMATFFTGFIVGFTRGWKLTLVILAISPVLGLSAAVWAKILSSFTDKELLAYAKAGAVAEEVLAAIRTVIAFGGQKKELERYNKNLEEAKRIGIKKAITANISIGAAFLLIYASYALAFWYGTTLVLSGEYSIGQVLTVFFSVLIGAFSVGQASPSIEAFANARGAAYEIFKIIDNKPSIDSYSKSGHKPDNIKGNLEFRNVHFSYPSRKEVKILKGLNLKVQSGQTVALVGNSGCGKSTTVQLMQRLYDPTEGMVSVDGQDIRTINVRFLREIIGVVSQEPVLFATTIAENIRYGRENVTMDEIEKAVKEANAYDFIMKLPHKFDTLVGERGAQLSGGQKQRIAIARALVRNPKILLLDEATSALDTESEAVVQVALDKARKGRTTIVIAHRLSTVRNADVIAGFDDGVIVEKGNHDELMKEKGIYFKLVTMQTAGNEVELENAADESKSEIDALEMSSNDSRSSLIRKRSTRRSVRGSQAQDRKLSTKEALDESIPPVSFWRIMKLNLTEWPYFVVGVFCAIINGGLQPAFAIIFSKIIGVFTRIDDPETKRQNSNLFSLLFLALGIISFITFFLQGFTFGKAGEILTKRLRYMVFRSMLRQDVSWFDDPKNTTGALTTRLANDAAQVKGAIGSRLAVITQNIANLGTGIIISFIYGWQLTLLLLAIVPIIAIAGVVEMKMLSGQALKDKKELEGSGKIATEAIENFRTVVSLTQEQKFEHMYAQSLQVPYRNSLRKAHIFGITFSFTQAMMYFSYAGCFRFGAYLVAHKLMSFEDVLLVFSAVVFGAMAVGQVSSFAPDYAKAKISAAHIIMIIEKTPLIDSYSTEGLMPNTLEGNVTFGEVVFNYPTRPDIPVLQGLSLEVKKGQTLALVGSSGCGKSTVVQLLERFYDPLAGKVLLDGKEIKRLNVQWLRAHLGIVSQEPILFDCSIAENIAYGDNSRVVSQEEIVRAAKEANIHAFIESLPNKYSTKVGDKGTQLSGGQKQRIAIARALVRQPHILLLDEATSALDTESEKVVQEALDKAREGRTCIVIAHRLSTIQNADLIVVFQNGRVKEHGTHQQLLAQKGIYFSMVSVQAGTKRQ
# Procedure, shortened: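 SYBR Green real-time RT-PCR on 150 ng total RNA with 250 nM primers: RT 20 min at 50 °C, then 45 cycles; expression taken as crossing-point cycle number. Correlated with drug sensitivity of 1429 compounds across the cell panel; permutation p-values with step-down and step-up (FDR q-value) multiple-testing correction.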
# ABCD4 = target: T8, ABCD4 (Homo sapiens, UniProt O14678); experiment: Correlation of ABCD4 expression with drug sensitivity across the NCI-60; format: cell-based; settings: Pearson correlation of ABCD4 expression with sensitivity of the 60 cell lines; 1429 compounds; inverse, p < 0.0001
# T8 construct: profiled in 60 diverse cancer cell lines (the NCI-60) using real-time RT-PCR; endogenous in cells; host or cells: NCI-60 human cancer cell lines
# T8 sequence (O14678 whole entry): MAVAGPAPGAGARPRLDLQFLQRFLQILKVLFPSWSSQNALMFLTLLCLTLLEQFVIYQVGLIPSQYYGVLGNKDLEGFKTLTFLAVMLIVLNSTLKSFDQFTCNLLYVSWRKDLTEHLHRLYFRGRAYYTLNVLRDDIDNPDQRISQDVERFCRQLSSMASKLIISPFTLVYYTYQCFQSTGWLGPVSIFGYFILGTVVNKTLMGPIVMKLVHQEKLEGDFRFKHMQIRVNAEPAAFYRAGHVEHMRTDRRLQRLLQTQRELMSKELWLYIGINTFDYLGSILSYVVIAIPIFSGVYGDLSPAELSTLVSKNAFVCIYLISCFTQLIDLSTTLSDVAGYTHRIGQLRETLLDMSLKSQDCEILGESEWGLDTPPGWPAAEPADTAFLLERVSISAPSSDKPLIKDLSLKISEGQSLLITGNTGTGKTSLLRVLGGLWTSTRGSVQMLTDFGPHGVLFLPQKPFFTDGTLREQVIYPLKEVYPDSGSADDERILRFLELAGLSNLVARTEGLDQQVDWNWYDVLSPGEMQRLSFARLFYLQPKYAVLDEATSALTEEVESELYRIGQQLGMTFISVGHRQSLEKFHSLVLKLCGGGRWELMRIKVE
# Description: as §5, §4
# ABCD1 = target: T9, ABCD1 (Homo sapiens, UniProt P33897); experiment: Correlation of ABCD1 expression with drug sensitivity across the NCI-60; format: cell-based; settings: Pearson correlation of ABCD1 expression with sensitivity of the 60 cell lines; 1429 compounds; inverse, p < 0.0001
# T9 construct: profiled in 60 diverse cancer cell lines (the NCI-60) using real-time RT-PCR; endogenous in cells; host or cells: NCI-60 human cancer cell lines
# T9 sequence (P33897 whole entry): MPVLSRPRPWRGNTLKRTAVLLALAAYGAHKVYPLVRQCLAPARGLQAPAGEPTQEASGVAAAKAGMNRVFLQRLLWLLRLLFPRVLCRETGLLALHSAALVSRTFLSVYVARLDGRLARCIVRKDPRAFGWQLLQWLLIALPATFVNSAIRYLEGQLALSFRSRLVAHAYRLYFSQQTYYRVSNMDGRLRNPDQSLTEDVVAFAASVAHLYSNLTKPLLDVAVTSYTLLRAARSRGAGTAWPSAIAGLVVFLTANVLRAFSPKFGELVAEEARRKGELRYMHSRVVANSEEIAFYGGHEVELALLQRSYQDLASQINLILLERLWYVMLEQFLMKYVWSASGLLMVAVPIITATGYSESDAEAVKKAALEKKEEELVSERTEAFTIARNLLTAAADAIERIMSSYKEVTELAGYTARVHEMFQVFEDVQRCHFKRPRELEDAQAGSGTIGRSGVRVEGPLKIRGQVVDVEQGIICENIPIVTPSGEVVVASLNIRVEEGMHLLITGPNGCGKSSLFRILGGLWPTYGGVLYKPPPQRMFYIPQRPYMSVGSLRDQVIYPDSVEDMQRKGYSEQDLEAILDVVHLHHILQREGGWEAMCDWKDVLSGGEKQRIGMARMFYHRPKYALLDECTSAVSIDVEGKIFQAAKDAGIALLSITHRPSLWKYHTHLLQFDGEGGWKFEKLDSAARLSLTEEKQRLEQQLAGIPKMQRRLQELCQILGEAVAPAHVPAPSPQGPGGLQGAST
# Description: as §2
# RT-PCR is carried out on 150 ng total RNA, in the presence of 250 nM specific primers. Following reverse transcription (20 min at 50° C.), the PCR reaction consists of 45 cycles of denaturation (15 sec at 95° C.), annealing (30 sec at 58° C.), and elongation (30 sec at 72° C.). No-template (water) reaction mixtures are prepared as negative controls.
# During PCR amplification, fluorescence emission is measured and recorded in real time by the LightCycler. Crossing point values are calculated, using the LightCycler software package, by the Fit Points analysis method, with baseline fluorescence set at 1. The SyberGreen assay measures accumulation of double-stranded products, and the appearance of primer dimers limits quantitation at high cycle numbers. The specificity of amplified products is verified by melting-curve analysis and agarose gel electrophoresis (not shown). The raw results are expressed as number of cycles to reach the crossing point. If the desired product is not detected, the corresponding value is adjusted to crossing points indicating no expression. To assess the contribution of experimental artifacts, selected cell lines are assessed in replicate.
# The two are combined to form a joint dataset that includes 1429 compounds.
# To determine quantitatively how well the 47 genes cluster the cell lines by their tissues of origin, a statistical method is employed wherein the kappa statistic is used to indicate how well the observed clusters correspond to the nine tissue-of-origin classifications. […] To control the overall false type 1 error rate, both a step-down procedure (Westfall and Young, 1993, Resampling-Based Multiple Testing: Examples and Methods for p-value Adjustment (New York: Wiley)) and a step-up procedure (Reiner et al., 2003, Bioinformatics 19:368-375) were employed to adjust for multiple testing of all 47 genes simultaneously. In the Benjamini-Hochberg procedure the p-values are computed in the standard way by permutation, assuming that all distributions are exchangeable: the number of values in the permuted data with correlations over a threshold, divided by the number of compounds and by the number of permutations. In this analysis, the False Discovery Rate (q-value) at which each compound would be declared was calculated using the step-up procedure for positively correlated test statistics (again true because all correlations being compared are computed against the same ABC gene): in this procedure the first q-value for the largest correlation is the Bonferroni-corrected p-value for that gene; then further q-values are calculated as qj=max(pj*1429/j, qj-1). This procedure limits the expected proportion of false positives in the list 1, . . . , j to at most qj.
# ABCF1 = target: T10, ABCF1 (Homo sapiens, UniProt Q8NE71); experiment: Correlation of ABCF1 expression with drug sensitivity across the NCI-60; format: cell-based; settings: Pearson correlation of ABCF1 expression with sensitivity of the 60 cell lines; 1429 compounds; inverse, p < 0.0001
# T10 construct: endogenous in cells; host or cells: NCI-60 human cancer cell lines
# Description: as §5, §4
# ABCB2 = target: T11, ABCB2 (Homo sapiens, UniProt Q03518); experiment: Correlation of ABCB2 expression with drug sensitivity across the NCI-60; format: cell-based; settings: Pearson correlation of ABCB2 expression with sensitivity of the 60 cell lines; 1429 compounds; inverse, p < 0.0001
# T11 construct: profiled in 60 diverse cancer cell lines (the NCI-60) using real-time RT-PCR; endogenous in cells; host or cells: NCI-60 human cancer cell lines
# Description: as §5, §4
# ABCC4 = target: T12, ABCC4 (Homo sapiens, UniProt O15439); experiment: Correlation of ABCC4 expression with drug sensitivity across the NCI-60; format: cell-based; settings: Pearson correlation of ABCC4 expression with sensitivity of the 60 cell lines; 1429 compounds; inverse, p < 0.0001
# T12 construct: profiled in 60 diverse cancer cell lines (the NCI-60) using real-time RT-PCR; endogenous in cells; host or cells: NCI-60 human cancer cell lines
# T12 sequence (O15439 whole entry): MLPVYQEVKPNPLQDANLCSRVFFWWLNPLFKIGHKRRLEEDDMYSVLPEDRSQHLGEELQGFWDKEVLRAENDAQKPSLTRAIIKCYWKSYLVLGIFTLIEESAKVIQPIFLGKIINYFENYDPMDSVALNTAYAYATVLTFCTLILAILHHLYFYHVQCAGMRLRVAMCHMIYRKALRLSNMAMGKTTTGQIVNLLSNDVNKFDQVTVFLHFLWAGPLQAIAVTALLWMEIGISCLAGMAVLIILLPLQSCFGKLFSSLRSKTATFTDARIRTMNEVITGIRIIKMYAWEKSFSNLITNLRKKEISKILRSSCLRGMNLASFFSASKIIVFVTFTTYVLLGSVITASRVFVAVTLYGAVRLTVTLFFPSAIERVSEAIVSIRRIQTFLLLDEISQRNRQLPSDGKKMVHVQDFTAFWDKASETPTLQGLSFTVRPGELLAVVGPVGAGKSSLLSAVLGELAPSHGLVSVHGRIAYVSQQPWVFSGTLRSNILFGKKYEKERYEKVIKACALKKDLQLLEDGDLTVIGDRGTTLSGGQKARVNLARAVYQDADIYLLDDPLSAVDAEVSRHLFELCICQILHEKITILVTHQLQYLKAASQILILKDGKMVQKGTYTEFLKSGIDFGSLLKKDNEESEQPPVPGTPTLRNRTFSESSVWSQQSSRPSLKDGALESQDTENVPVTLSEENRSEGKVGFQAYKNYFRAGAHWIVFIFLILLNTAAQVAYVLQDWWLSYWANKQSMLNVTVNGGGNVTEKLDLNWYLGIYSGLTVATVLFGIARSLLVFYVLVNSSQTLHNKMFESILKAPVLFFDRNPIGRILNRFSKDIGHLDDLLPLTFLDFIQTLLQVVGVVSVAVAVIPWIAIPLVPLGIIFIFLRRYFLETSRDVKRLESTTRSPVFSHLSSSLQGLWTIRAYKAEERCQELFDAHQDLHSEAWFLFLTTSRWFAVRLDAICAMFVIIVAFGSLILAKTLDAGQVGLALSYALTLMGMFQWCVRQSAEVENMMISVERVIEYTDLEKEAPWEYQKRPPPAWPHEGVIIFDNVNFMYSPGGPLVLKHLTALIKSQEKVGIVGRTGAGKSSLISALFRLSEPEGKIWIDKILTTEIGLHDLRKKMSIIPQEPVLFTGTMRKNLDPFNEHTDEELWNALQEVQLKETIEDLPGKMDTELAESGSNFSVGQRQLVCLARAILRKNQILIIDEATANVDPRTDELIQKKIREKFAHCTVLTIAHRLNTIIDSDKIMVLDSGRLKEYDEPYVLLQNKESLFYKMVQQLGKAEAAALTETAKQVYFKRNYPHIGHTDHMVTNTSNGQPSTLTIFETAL
# Description: as §2, §3, §4
# [2] = tested on: KB-V1 cells (over-express MDR1-P-gp) vs parental KB-3-1 cells; experiment: MTT assay using the KB-3-1/KB-V1 cell pair; format: cell-based, human
# Description: as §1
# To test whether our approach using the NCI-60 does, in fact, identify new substrates, an MTT assay is used to test all top-scoring compounds that were available from DTP for follow-up experiments. KB-3-1, a human carcinoma cell line, and KB-V1, a multidrug resistant derivative of KB-3-1 that over-expresses MDR1-P-gp (Shen et al., 1986, J. Biol. Chem. 261:7762-7770), are used for the tests. […] This resistance of KB-V-1 cells is invariably reversible by PSC 833. The intrinsic fluorescence of one of the compounds, NSC 634791, allows for the measurement of the effect of MDR1 activity on its export from cells.
# [3] = tested on: KB Hela cells expressing ABCB1(MDR1) under tetracycline control; experiment: MTT assay using HeLa-transfectants with human MDR1 under tetracycline control; format: cell-based; settings: absence (On) or presence (Off) of 2 μg/ml tetracycline
# Description: Panel A is a scatter plot showing positive correlation (r=+0.54; 95% confidence interval 0.259 to 0.713) of ABCB1 expression with sensitivity of the 60 cell lines to NSC 73306. […] Cells are grown in the absence (ABCB1(MDR1)-On) or presence (ABCB1(MDR1)-Off) of 2 μg/ml tetracycline for at least seven days before starting the MTT assay. Cell surface expression and function of ABCB1 (MDR1) are verified prior to the assay by staining with anti-MDR1 monoclonal antibody (MRK-16) and by a performing a functional assay based on MDR1-controlled accumulation of the fluorescent dye Calcein (Homolya et al., 1996, Br. J. Cancer 73:849-855). […] Values are means ±S.E. of triplicate measurements.
# Cell survival is measured by the MTT (3-(4,5-Dimethylthiazol-2-yl)-2,5-diphenyltetrazolium) Assay. Cells are seeded in 100 μl medium at a density of 5000 cells/well in 96 well plates, and serially diluted drug (with or without 2 μM PSC 833) is added the following day in 100 μl medium to give the indicated final concentration. Cells are then incubated for 72 hrs at 37° C. in 5% CO2, and the MTT assay is performed according to the manufacturer's instructions (Molecular Probes, Eugene, Oreg.). […]
# MDR1 positive cells = experiment: Pretreatment of MDR1 positive cells with MDR1-potentiated compound (loss of MDR phenotype); format: cell-based
# From the text: In another preferred embodiment, the invention relates to methods of inhibiting the development of a multidrug resistance phenotype in a cancer in a subject comprising administering an ABCB1 potentiated agent to the subject. As used herein, inhibiting the development of a multidrug resistant phenotype refers to both the inhibition of the initial onset of the phenotype or the inhibition of any further development of the multidrug phenotype. It is contemplated as part of the invention that the ABCB1 potentiated agent may be administered simultaneously with a chemotherapeutic agent that is a substrate of the ABCB1 transporter. It is understood as an aspect of the invention that such simultaneous administration refers to administration within the same general time period rather than at the same exact moment in time. Thus treatment with the ABCB1 potentiated compound and the chemotherapeutic agent may be on the same day or on different days, or in the same week or in different weeks. It is within the skill of the ordinary artisan to optimize a treatment schedule to maintain the therapeutic efficacy of the chemotherapeutic agent by administration of the ABCB1 potentiated compound to inhibit the development of drug resistance. MDR1-potentiated compounds may be used to prevent the emergence of drug resistance clones. […]
# MDR1 = MDR1 (Homo sapiens, UniProt P08183); experiment: Block of MDR1-mediated transport of other molecules; format: cell-based
structure (smiles),measurement,setting,value
CS(=O)(=O)c1cc(=O)c2ccccc2s1 [NSC 622282],Correlation,ABCB3,−0.4406
COc1cc2[nH]c3c(c2cc1OC)CCN[C@@]31CC[C@@]2(CC3c4c(cc(OC)c(O)c42)CCN3C)C[C@@H]1OC (some centres unmarked) [NSC 626578],Correlation,ABCC8,−0.4335
CC(=O)c1sc2c(c1OC(=O)c1ccc(Cl)cc1Cl)c(=O)n(-c1ccccc1)c(=S)n2-c1ccccc1 [NSC 671136],Correlation (r) of ABCC11 expression with sensitivity,ABCC11,−0.38
same,Resistance of ABCC11-transfected LLC-PK1 cells relative to sham-transfected cells,[1],two- to three-fold
O=c1[nH]cc(F)c(=O)[nH]1 [NSC 19893],Correlation,ABCD3,−0.4232
C=C1[C@@H](C)[C@H]2[C@H](Cc3ccccc3)NC(=O)[C@]23[C@H](OC(C)=O)/C=C/[C@@](C)(O)C(=O)[C@@H](C)C/C=C/[C@H]3[C@@H]1O [NSC 209835],Correlation,ABCG8,−0.4443
O=C1c2cccc3cc([N+](=O)[O-])cc(c23)C(=O)N1Nc1ccc([N+](=O)[O-])cc1[N+](=O)[O-] [NSC 679265],Correlation,ABCA2,−0.3298
COc1cc2c(c(OC)c1OC)-c1cccc(=O)cc1C(NC(C)=O)CC2 (centres unmarked) [NSC 352277],Correlation,ABCC9,−0.3094
CC(=O)OC(C)(C)/C=C/C(=O)[C@](C)(O)[C@H]1[C@H](O)C[C@@]2(C)[C@@H]3CC=C4[C@@H](C=C(O)C(=O)C4(C)C)[C@]3(C)C(=O)C[C@]12C [NSC 106399],Pearson's Correlation Coeff,ABCB1,0.1871
same,Correlation,ABCD4,−0.4232
N[C@H](C(=O)O)[C@@H]1CC(Cl)=NO1 [NSC 163501],Pearson's Correlation Coeff,ABCB1,0.2122
same,Correlation,ABCD1,−0.4301
same,Correlation,ABCF1,−0.5274
CC(C)C1=CC2=CC[C@@H]3[C@](C)(CCC[C@@]3(C)C(=O)O)[C@H]2CC1 [NSC 25149],Correlation,ABCB2,−0.3794
CSCSCC(CO)NC(=O)/C=C\c1c(C)[nH]c(=O)[nH]c1=O (centres unmarked) [NSC 251820],Correlation,ABCC4,−0.4340
COc1ccc(NC(=S)N/N=C2\C(=O)Nc3c(Cl)cc(Cl)cc32)cc1 [NSC 73306],Correlation of antiproliferative activity with ABCB1 expression,ABCB1,0.511
same,Correlation,ABCD1,−0.6029
same,Effect of PSC 833 on the heightened sensitivity of KB-V1 cells,[2]; MTT assay with 2 μM PSC 833,completely reversed sensitivity; also recorded: completely abolished the heightened sensitivity
same,Sensitivity of KB-V1 cells relative to parental KB-3-1 (potentiation by ABCB1),"[2]; MTT assay, 72 hrs",four- to five-fold; also recorded: approximately four-fold
same,Sensitivity of MDR1-On cells relative to MDR1-Off cells,[3],two- to four-fold; also recorded: approximately two-fold
same,Drug sensitivity for non-MDR1 substrates after pretreatment,MDR1 positive cells; non-MDR1 substrates such as cisplatin and methotrexate,unchanged
same,Drug resistance to MDR1 substrates after pretreatment,MDR1 positive cells; pretreatment of MDR1 positive cells,almost complete elimination of drug resistance
same,Block of MDR1-mediated transport of other molecules,MDR1,does not block

# Reference: patent publication US20080214606A1, “Methods for the Identification and Use of Compounds Suitable for the Treatment of Drug Resistant Cancer Cells” (The Government of the United States of America as …, priority 2004, published 2008)
